{"source": "patent US9776992B2", "about": "“1-oxo-1,2-dihydroisoquinolin-7-yl-(5-substituted-thiophen-2-yl)-sulfonamide compounds, formulations containing those compounds, and their use as AICARFT inhibitors in the treatment of cancers” (Eli Lilly and Company, priority 2014, dated 2017)", "key": {"[1]": {"molecular_target": "T1, AICARFT (Homo sapiens, UniProt P31939)", "T1 sequence (P31939 whole entry)": "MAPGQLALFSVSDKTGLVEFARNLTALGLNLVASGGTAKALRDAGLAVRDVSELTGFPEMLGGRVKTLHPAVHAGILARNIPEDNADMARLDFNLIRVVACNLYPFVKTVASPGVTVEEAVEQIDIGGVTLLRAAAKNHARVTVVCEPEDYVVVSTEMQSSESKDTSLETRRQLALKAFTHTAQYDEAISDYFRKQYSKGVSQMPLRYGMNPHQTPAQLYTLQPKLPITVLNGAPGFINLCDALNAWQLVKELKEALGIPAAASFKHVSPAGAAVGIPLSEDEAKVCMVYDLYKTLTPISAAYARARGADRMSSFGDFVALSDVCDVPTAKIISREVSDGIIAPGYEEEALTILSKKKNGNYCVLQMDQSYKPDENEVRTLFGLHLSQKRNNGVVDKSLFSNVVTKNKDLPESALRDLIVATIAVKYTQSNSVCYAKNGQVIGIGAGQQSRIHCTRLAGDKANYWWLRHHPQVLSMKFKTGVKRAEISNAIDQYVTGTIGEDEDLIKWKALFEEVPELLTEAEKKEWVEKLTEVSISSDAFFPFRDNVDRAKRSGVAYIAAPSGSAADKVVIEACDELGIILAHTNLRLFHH", "assay": "AICARFT enzyme assay (LC-MS of IMP and ZMP)", "assay_type": "biochemical", "design": "made in house; host or cells: E. coli BL21(DE3)", "settings": "summary of Table 15", "description": "Human AICARFT (NCBI accession number: NM_004044.6) cDNA is purchased from Openbiosystem Co. (Cat# MHS1011-62310, Clone ID: 4300570, accession: BC008879). The nucleotide sequence encoding full-length human AICARFT is inserted into pET21d (Novagen) vector with an N-terminal HIS tag. Bacterial BL21(DE3) (Novagen) is used as an expression host, and the induction of protein expression is carried out in 2×TY media with 1 mM IPTG at 18° C. overnight. Cell pellets are stored at −80° C. for subsequent protein purification. Protein purification is conducted at 4° C. Frozen cell pellets are lysed by incubation with stirring in 50 mL cold lysis buffer (50 mM Tris-HCl, pH 7.5, 300 mM NaCl, 10% glycerol, 0.1% Triton X-100, 0.5 mg/mL lysozyme, 5 U/mL benzonase, 1 mM DTT, 10 mM imidazole, and Roche complete EDTA-free protease inhibitor) per liter cell pellet and sonication. Cell lysates are clarified by centrifugation in a Bechman JA-18 rotor for 45 min at 16,500 rpm. The supernatant is incubated with Ni-NTA agarose resin (Qiagen) for 3 hours, followed by an initial batch wash with 10 resin volume of buffer A (50 mM Tris-HCl, pH 7.5, 300 mM NaCl, 10% glycerol, 1 mM DTT, 10 mM imidazole) containing 0.1% Triton X-100. The resin is then packed onto a column and washed with buffer A. The HIS-tagged AICARFT protein is eluted with 10-500 mM imidazole gradient in buffer A. Pooled HIS-AICARFT containing fractions are concentrated, loaded onto a HiLoad 26/600 Superdex 200 column (GE Healthcare Biosciences), and eluted with storage buffer (50 mM Tris-HCl, pH7.5, 150 mM NaCl, 1 mM DTT, 10% Glycerol). Fractions containing HIS-AICARFT are pooled and protein concentration determined by the Bradford assay using BSA as standard. The protein is aliquoted and stored at −80° C.\nOne of the substrates of the enzyme reaction, 10-formyltetrahydrofolate (10-F-THFA), has limited chemical stability and is therefore synthesized on the same day that the ATIC enzyme assay is performed. The general synthetic route is described in P. Rowe, Methods Enzymol., 18, 733-735, (1971) and J. Rabinowitz, Methods Enzymol., 6, 814-815, (1963). The first step in this synthesis is the conversion of folinic acid (Sigma CAS 1492-18-8) to 5,10-methenyltetrahydrofolic acid (5,10-M-THFA). This conversion typically takes place the day before the enzyme assay is performed, but can be performed up to 1 week earlier and stored at room temperature. To folinic acid (81.6 mg) is added β-mercaptoethanol (2 mL), and 37% concentrated HCl (80 μL), is added. This reaction incubates a minimum of 3 hours at room temperature, with occasional mixing. The color changes from clear to yellow visually, and the complete conversion of folinic acid to 5,10-M-THFA is monitored by spectral analysis using a quartz cuvette. The UV absorption will change from 266 nm to 356 nm during this step. […] On the morning of the assay, the 80 mM 5,10-M-THFA is diluted to 1.6 mM in 40 μM ammonium bicarbonate (made fresh that day). This reaction incubates 3-5 hours at room temperature. The color changes from yellow to clear visually, and the conversion of 5,10-M-THFA to 10-F-THFA is monitored by spectral analysis using a quartz cuvette. The UV absorption will change from 356 nm to 258 nm during this step. […] Test compounds are prepared in DMSO to make a 10 mM stock solution. The stock solution is serially diluted 3-fold in DMSO to obtain a ten-point dilution curve with final compound concentrations ranging from 100 μM to 5 nM. The final DMSO concentration in the assay is 5%.\nTo each well of a 384-well polypropylene assay plate (NUNC 264573), […] of DMSO (control wells) or compound in DMSO and 9 μL of 55.56 μM ZMP (Sigma-Aldrich CAS 3031-94-5) in water are added. Then, 10 μL of 200 μM 10-F-THFA and 6 nM ATIC enzyme in 40 μM ammonium bicarbonate is added. […] The assay is incubated for 1 hour at room temperature, after which 40 μL of ACN is added to stop the reaction."}, "[2]": {"molecular_target": "T1, AICARFT", "assay": "MS detection of ZMP in low folate media cultured NCI-H460 cells", "assay_type": "cell-based", "design": "endogenous in cells; host or cells: NCI-H460", "settings": "low levels of folate in the media; summary of Table 16", "description": "Grow NCI-H460 cells in complete high folate RPMI media (ATCC #30-2001) until cellular confluence reaches ˜80%. Wash cells with PBS, trypsinize, resuspend cells in complete low folate RPMI media (Gibco #27016-021) and perform a cell count. Transfer 1.25×10^6 cells to a T225 flask containing complete low folate RPMI media (40 mL). Grow for seven days. Split cells again with complete low folate media if confluence surpasses 80%. Wash cells with PBS, trypsinize, resuspend cells in complete low folate RPMI media, and perform a cell count. Aliquot 10×10^6 cells in complete low folate media (1 mL)+5% DMSO per cryovial. Use a cell freezing apparatus to freeze cells in a slow and controlled manner in a −80° C. freezer. The next day, transfer cells to liquid nitrogen for long term storage. Thaw frozen cells from cryovial in 37° C. water bath, wash cells once with low folate assay medium: folate free RPMI 1640 medium (Gibco, #27016-021), Glucose (Sigma, #G5767), Hepes (Hyclone, #SH30237.01), Na Pyruvate (Hyclone, #Sh30239.01), 10% FBS (Hyclone, #SH30070.03). Adjust cells concentration to 250,000 cells/mL with medium, plate cells by adding 100 μl/well (25,000 cells/well) into Biocoat poly-D-lysine 96-well plate (BD, #35-4640), and incubate at 37° C. overnight with 5% CO2. Treat cells with 20 μl/well compound diluted in media containing 3% DMSO. Incubate at 37° C. for 16 hours with 5% CO2, then remove the medium and add 1× SureFire Lysis Buffer (50 μL) (PerkinElem, SureFire® Kit component) to each well and incubate at room temperature for 10 min with gentle shaking.\nCells grown in a 96-well plate have the media removed and are lysed in AlphaScreen® SureFire® lysis buffer. Standard curves containing ZMP, dUMP and AICAr at concentrations of 5-10,000 ng/mL are prepared in 40 mM ammonium acetate, pH 4. Aliquots (40 μL) of each standard or sample are combined in a deep 96-well plate with 160 μL of internal standard solution containing ^13C5-ZMP (custom synthesis) and ^13C5-AICAr (custom synthesis) at 100 ng/mL in 40 mM ammonium acetate, pH 4. A Beckman Biomek FX liquid handler is used to add 400 μL of DCM to each sample. Samples are sealed, vortexed for 5 minutes, and placed in the refrigerator for at least 30 minutes. The samples are centrifuged for 10 minutes at 4,000 rpm and 4° C. using an Eppendorf 5810R centrifuge, and the Biomek liquid handler is used to transfer 75 μL of the aqueous layer into a clean 96-well plate. The plates are sealed prior to analysis.\nThe LC-MS method utilizes a Shimadzu Prominence 20A HPLC system connected to an AB Sciex 5500™ or an AB Sciex 6500™ triple quadrupole mass spectrometer running Analyst® 2.1 software. Extracted samples are separated using a Thermo Hypercarb™ Javelin guard column (2.1×20 mm, […]) with an injection volume of 15 μL and a flow rate of 1 mL/minute. Mobile phase A is a 95:5 mixture of 50 mM ammonium formate, pH 4 and ACN. Mobile phase B is a 70:30 mixture of ACN and MeOH spiked with 0.3% formic acid and 2% concentrated ammonium hydroxide solution (v/v). The gradient is as follows: 0 minutes, 0% B; 0.25 minutes, 0% B; 2.00 minutes, 30% B; 2.01 minutes, 95% B; 3.50 minutes, 95% B, 3.51 minutes, 0% B, 5.00 minutes, stop.\nThe mass spectrometer is operated in positive ion TurboIonSpray® multiple reaction monitoring mode with a source temperature of 700° C. The precursor and fragment ions for each analyte are: ZMP (339→110), ^13C5-ZMP (344→110), dUMP (309→81), AICAr (259→127) and ^13C5-AICAr (264→127). Calibration curves are constructed by plotting analyte concentrations vs. analyte/internal standard peak area ratios and performing a linear fit of the data using a 1/concentration weighting with AB Sciex MultiQuant™ 2.1 software. Back-calculated ZMP concentrations are fit to a four-parameter logistic equation using ACTIVITYBASE 4.0 to determine IC50 values."}}}
{"compound": "O=c1[nH]ccc2cc(F)c(NS(=O)(=O)c3ccc(N4CC[C@H](O)C4)s3)cc12", "note": "[Example 8, N-(6-Fluoro-1-oxo-1,2-dihydroisoquinolin-7-yl)-5-[(3S)-3-hydroxypyrrolidin-1-yl]thiophene-2-sulfonamide]", "values": [{"measurement": "AICARFT inhibition in enzyme assay (in words)", "setting": "[1]", "value": "inhibit AICARFT"}, {"measurement": "AICARFT inhibition in low folate media assay (in words)", "setting": "[2]", "value": "still inhibit AICARFT"}]}
